From patent US7595401B2, “Therapeutic compounds and their use in cancer” (Myriad Pharmaceuticals, Inc., priority 2006, dated 2009) come the findings set out here.

The subject of the first assay is purified human Hsp90. The experiment in a line: Binding Assay: fluorescence polarization with BODIPY-labeled geldanamycin. Particulars: 5 μM compound, BODIPY-GM 10 nM, Hsp90 30 nM. Summed up:
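Compounds in 2% DMSO final compete with 10 nM BODIPY-GM for 30 nM purified human Hsp90, incubated overnight at room temperature in pH 7.3 HEPES buffer containing Na2MoO4 and DTT. Polarization (mP, ex/em 485/530) normalized to DMSO gives percent inhibition; autofluorescence-confounded data excluded.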
A general note: Fluorescence polarisation rises when a labelled molecule tumbles more slowly, as on binding a larger partner.
In general, % Inhibition refers to the relative decrease from the control value, in per cent. `Nc1ncn(CC2(c3ccc(Cl)cc3)CCC2)c2nc(Sc3cc4c(cc3Br)OCO4)nc1-2` [Example 96, 8-(6-bromo-benzo[1,3]dioxol-5-ylsulfanyl)-3-[1-(4-chloro-phenyl)-cyclobutylmethyl]-3H-purin-6-ylamine]: the “% Inhibition at 5 μM Compound Concentration” value (from here on “% Inhibition”) is listed as 2%.
The same measure, in the same setting: in the case of `COc1ccc(OC)c(Sc2nc3c(N)ncnc3n2CCc2ccc(S(=O)(=O)O)cc2)c1` [Example 175, 4-{2-[6-Amino-8-(2,5-dimethoxy-phenylsulfanyl)-purin-9-yl]-ethyl}-benzenesulfonic acid] it was 46%.
Turning to `Nc1ncn(CCC2CCN(S(=O)(=O)C(F)(F)F)CC2)c2nc(Sc3cc4c(cc3Br)OCO4)nc1-2` [Example 388, 8-[(6-Bromo-1,3-benzodioxol-5-yl)thio]-3-(2-{1-[(trifluoromethyl)sulfonyl]piperidin 4-yl}ethyl)-3H-purin-6-amine], the “% Inhibition” value amounted to 13%.
On to `CC(C)(C)n1nnnc1N1CCC(CCn2cnc(N)c3nc(Sc4cc5c(cc4Br)OCO5)nc2-3)CC1` [Example 615, 8-[(6-Bromo-1,3-benzodioxol-5-yl)thio]-3-{2-[1-(1-tert-butyl-1 H-tetrazol-5-yl)piperidin-4-yl]ethyl}-3 H-purin-6-amine], for which the “% Inhibition” value is listed as 13.00%.
As to `Nc1ncn(CCC2CCOCC2)c2nc(Sc3cc4c(cc3Br)OCO4)nc1-2` [Example 350, 8-[(6-Bromo-1,3-benzodioxol-5-yl)thio]-3-[2-(tetrahydro-2H-pyran-4-yl)ethyl]-3H-purin-6-amine], the “% Inhibition” value amounted to 25%.
As for `CCOC(=O)N1CCCCC1CCn1cnc(N)c2nc(Sc3cc4c(cc3Br)OCO4)nc1-2` (stereo not shown) [Example 340, Ethyl 2-(2-{6-amino-8-[(6-bromo-1,3-benzodioxol-5-yl)thio]-3H-purin-3-carboxylate], the “% Inhibition” value is 23%.
Regarding `Cc1cc(=O)oc2cc(Sc3nc4c(N)ncn(CCC5CCN(C=O)CC5)c-4n3)ccc12` [Example 533, 4-(2-{6-Amino-8-[(4-methyl-2-oxo-2 H-chromen-7-yl)thio]-3 H-purin-3-yl}ethyl)piperidine-1-carbaldehyde], the “% Inhibition” value is reported as 0.00%.
Turning to `Nc1ncn(CCc2ccccc2)c2nc(Sc3ccc(NC=O)c(O)c3)nc1-2` [Example 268, N-(4-{[6-Amino-3-(2-phenylethyl)-3H-purin-8-yl]thio}-2-hydroxyphenyl)formamide], the “% Inhibition” value amounted to 7.0%.
Same read-out and setting: in the case of `COc1ccc(OC)c(Sc2nc3c(N)ncn(CCc4cccc(Cl)c4Cl)c-3n2)c1` [Example 74, 3-[2-(2,3-dichloro-phenyl)-ethyl]-8-(2,5-dimethoxy-phenylsulfanyl)-3H-purin-6-ylamine] it was 0%; in that of `CC(=O)N1CCCC(CCn2cnc(N)c3nc(Sc4cc5c(cc4Br)OCO5)nc2-3)C1` (stereo not shown) [Example 401, 3-[2-(1-Acetylpiperidin-3-yl)ethyl]-8-[(6-bromo-1,3-benzodioxol-5-yl)thio]-3H-purin-6-amine], 2%; in that of `COc1ccc(OC)c(Sc2nc3c(N)ncn(CCc4c(F)cccc4Cl)c-3n2)c1` [Example 123, 3-[2-(2-chloro-6-fluoro-phenyl)-ethyl]-8-(2,5-dimethoxy-phenylsulfanyl)-3H-purine-6-ylamine], 0%.

Still in this assay, the particulars now being: BODIPY-GM 10 nM, Hsp90 30 nM.
As usually defined, the IC50 is the point on the concentration scale where inhibition reaches its midpoint. Read a low IC50 as greater potency in that assay. In the case of `CC(C)(C)n1nnnc1N1CCC(CCn2c(Sc3cc4c(cc3Br)OCO4)nc3c(N)ncnc32)CC1` [Example 614, 8-[(6-Bromo-1,3-benzodioxol-5-yl)thio]-9-{2-[1-(1-tert-butyl-1 H-tetrazol-5-yl)piperidin-4-yl]ethyl}-9 H-purin-6-amine], the IC50 worked out at 1800 nM.
The same measure, in the same setting: in the case of `CC(C)(C)OC(=O)N1CCCC[C@@H]1CCn1c(Sc2cc3c(cc2Br)OCO3)nc2c(N)ncnc21` [Example 394, tert-Butyl (2R)-2-(2-{6-amino-8-[(6-bromo-1,3-benzodioxol-5-yl)thio]-9H-purin-9-yl}ethyl)piperidine-1-carboxylate] it was 700 nM; in that of `Nc1ncnc2c1nc(Sc1cc3c(cc1Br)OCO3)n2CCc1ccc(O)cc1` [Example 300, 4-(2-{6-Amino-8-[(6-bromo-1,3-benzodioxol-5-yl)thio]-9H-purin-9-yl}ethyl)phenol], 400 nM; in that of `COc1ccc(OC)c(Sc2nc3c(N)ncnc3n2CCc2ccc(S(=O)(=O)O)cc2)c1` [Example 175, 4-{2-[6-Amino-8-(2,5-dimethoxy-phenylsulfanyl)-purin-9-yl]-ethyl}-benzenesulfonic acid], 14000 nM.
`CC(C)(C)OC(=O)N1CCC(CCn2c(Sc3cc4c(cc3Br)OCO4)nc3c(N)ncnc32)C1` (stereo not shown) [Example 415, tert-Butyl 3-(2-{6-amino-8-[(6-bromo-1,3-benzodioxol-5-yl)thio]-9H-purin-9-yl}ethyl)pyrrolidine-1-carboxylate] gave an IC50 of 460 nM.
In turn, `CC(C)N1CCC(CCn2c(Sc3cc4c(cc3Br)OCO4)nc3c(N)ncnc32)CC1` [Example 582, 8-[(6-Bromo-1,3-benzodioxol-5-yl)thio]-9-[2-(1-isopropylpiperidin-4-yl)ethyl]-9 H-purin-6-amine] displayed a concentration for half-maximal inhibition (IC50) of 900 nM.
The molecule `COc1ccc(OC)c(Sc2nc3c(N)ncn(CCc4ccccc4Cl)c-3n2)c1` [Example 26, 3-[2-(2-chloro-phenyl)-ethyl]-8-(2,5-dimethoxy-phenylsulfanyl)-3H-purin-6-ylamine] returned an IC50 of over 10000 nM.
`C[C@H](NC(=O)OC(C)(C)C)C(=O)N1CCCC(CCn2c(Sc3cc4c(cc3Br)OCO4)nc3c(N)ncnc32)C1` (stereo partly drawn) [Example 703, tert-Butyl{(1S)-2-[3-(2-{6-amino-8-[(6-bromo-1,3-benzodioxol-5-yl)thio]-9H-purin-9-yl}ethyl)piperidin-1-yl]-1-methyl-2-oxoethyl}carbamate] returned an IC50 of 190 nM.
The same measure, in the same setting: in the case of `Nc1ncnc2c1nc(Sc1cc3c(cc1Br)OCO3)n2CCC1CCN(C(=O)C2CC2)CC1` [Example 514, 8-[(6-Bromo-1,3-benzodioxol-5-yl)thio]-9-{2-[1-(cyclopropylcarbonyl)piperidin-4-yl]ethyl}-9 H-purin-6-amine] it was 110 nM.
Regarding `C[C@H](NC(=O)OC(C)(C)C)C(=O)N1CCCC(Cn2c(Sc3cc4c(cc3Br)OCO4)nc3c(N)ncnc32)C1` (stereo partly drawn) [Example 778, tert-Butyl {(1S)-2-[3-({6-amino-8-[(6-bromo-1,3-benzodioxol-5-yl)thio]-9H-purin-9-yl}methyl)piperidin-1-yl]-1-methyl-2-oxoethyl}carbamate], the half-maximal inhibitory concentration (IC50) stood at 2000 nM.
Take `CC(C)(C)OC(=O)N1CCC[C@@H](CCn2c(Sc3cc4c(cc3Br)OCO4)nc3c(N)ncnc32)C1` [Example 391, tert-Butyl (3S)-3-(2-{6-amino-8-[(6-bromo-1,3-benzodioxol-5-yl)thio]-9H-purin-9-yl}ethyl)piperidine-1-carboxylate]: the half-maximal inhibitory concentration (IC50) is 1200 nM.
Molecule `COc1ccc(OC)c(Sc2nc3c(N)ncnc3n2CCn2cnc3ccccc3c2=O)c1` [Example 271, 3-(2-{6-Amino-8-[(2,5-dimethoxyphenyl)thio]-9H-purin-9-yl}ethyl)quinazolin-4(3 H)-one] yielded an IC50 of over 25000 nM.
As for `CN1[C@@H]2CC[C@H]1C[C@@H](CCn1c(Sc3cc4c(cc3Br)OCO4)nc3c(N)ncnc31)C2` [Example 426, 8-[(6-Bromo-1,3-benzodioxol-5-yl)thio]-9-{2-[(3-endo)-8-methyl-8-azabicyclo[3.2.1]oct-3-yl]ethyl}-9H-purin-6-amine], the IC50 came to 150 nM.
The molecule `COc1ccc(OC)c(Sc2nc3c(N)ncn(CC4(c5ccc(Cl)cc5)CCC4)c-3n2)c1` [Example 62, 3-[1-(4-chloro-phenyl)-cyclobutylmethyl]-8-(2,5-dimethoxy-phenylsulfanyl)-3H-purin-6-ylamine] came in with an IC50 of over 10000 nM.
As for `Nc1ncn(CCc2c(F)c(F)c(F)c(F)c2F)c2nc(Sc3cc4c(cc3Br)OCO4)nc1-2` [Example 42, 8-(6-bromo-benzo[1,3]dioxol-5-ylsulfanyl)-3-(2-pentafluorophenyl-ethyl)-3H-purin-6-ylamine], the IC50 was over 5000 nM.
Take `Nc1ncn(CCc2ccc(F)cc2)c2nc(Sc3ccc4c(c3)OCO4)nc1-2` [Example 12, 8-(benzo[1,3]dioxol-5-ylsulfanyl)-3-[2-(4-fluoro-phenyl)-ethyl]-3H-purin-6-ylamine]: the IC50 is over 10000 nM.
`COc1ccc(OC)c(Sc2nc3c(N)ncnc3n2CCc2ccccc2O)c1` [Example 231, 2-(2-{6-Amino-8-[(2,5-dimethoxyphenyl)thio]-9H-purin-9-yl}ethyl)phenol]: the IC50 was over 25000 nM.
`C[C@H](O)C(=O)N1CCC(CCn2c(Sc3ccc4c(c3)CCO4)nc3c(N)ncnc32)CC1` [Example 768, (2S)-1-(4-{2-[6-Amino-8-(2,3-dihydro-1-benzofuran-5-ylthio)-9H-purin-9-yl]ethyl}piperidin-1-yl)-1-oxopropan-2-ol] displayed an IC50 of over 5000 nM.
The same measure, in the same setting: the same measure for `C[C@H](C(=O)N1CCC(CCn2c(Sc3cc4c(cc3Br)OCO4)nc3c(N)ncnc32)CC1)N(C)C(=O)OC(C)(C)C` [Example 717, tert-Butyl{(1R)-2-[4-(2-{6-amino-8-[(6-bromo-1,3-benzodioxol-5-yl)thio]-9H-purin-9-yl}ethyl)piperidin-1-yl]-1-methyl-2-oxoethyl}methylcarbamate]: 200 nM; for `CCC(Cn1cnc(N)c2nc(Sc3cc(OC)ccc3OC)nc1-2)c1ccccc1` (stereo not shown) [Example 88]: 1300 nM; for `COc1cc(Sc2nc3c(N)ncnc3n2CCC2CCN(C(C)=O)CC2)c(OC)cc1Cl` [Example 563, 9-[2-(1-Acetylpiperidin-4-yl)ethyl]-8-[(4-cloro-2,5-dimethoxyphenyl)thio]-9 H-purin-6-amine]: over 5000 nM.
In the case of `Nc1ncn(CCN2CCCCC2)c2nc(Sc3cc4c(cc3Br)OCO4)nc1-2` [Example 492, 8-[(6-Bromo-1,3-benzodioxol-5-yl)thio]-3-(2-piperidin-1-ylethyl)-3 H-purin-6-amine], the IC50 stood at 900 nM.
`Nc1ncnc2c1nc(Sc1cc3c(cc1Br)OCO3)n2CCC1(F)C(F)(F)C(F)(F)C(F)(F)C(F)(F)C1(F)F` [Example 243, 8-[(6-Bromo-1,3-benzodioxol-5-yl)thio]-9-[2-(undecafluorocyclohexyl)ethyl]-9H-purin-6-amine] had an IC50 of over 1000 nM.
